# From patent US7160545B2, “HLA-A24 binding peptides of enhancer of zeste homolog 2” (Green Peptide Co., Ltd., priority 2005, dated 2007)
# Where two headings read alike, the source gives them in different places. No end group written: not given here.
# Key:
# [1] = tested on: IgG in the plasma of prostate cancer patients; experiment: ELISA for peptide-specific IgG in plasma of prostate cancer patients; format: binding, human; conditions: for Humoral response, Total (IgG-positive patients/patients tested): positive when OD more than 0.04; for IgG reactive to peptide, OD: 1:100-diluted plasma, cut-off OD 0.04, — = not positive
# Experimental: Peptide-specific IgG levels in the plasma were measured by ELISA using a previously reported method (20). In brief, peptide (20 μg/well)-immobilized plates were blocked with Block Ace (Yukijirushi, Tokyo, Japan) and washed with 0.05% Tween20-PBS, after which 100 μl/well of plasma sample diluted with 0.05% Tween20-Block Ace was added to the plates. After a 2-hr incubation at 37° C., the plates were washed and further incubated for 2 hr with a 1:1000-diluted rabbit anti-human IgG (γ-chain-specific) (DAKO, Glostrup, Denmark). The plates were washed, and then 100 μl of 1:100-diluted goat anti-rabbit IgG-conjugated horseradish peroxidase (EnVision; DAKO) was added to each well, and the plates were incubated at room temperature for 40 min. After the plates were washed once, 100 μl/well of tetramethyl benzidine substrate solution (KPL, Guildford, UK) was added, and the reaction was stopped by the addition of 1 M phosphoric acid. The values are shown as optical density (OD) units/ml. To confirm the specificity of IgG to the indicated EZH2 peptide, sample plasma was cultured with plates coated with either the corresponding EZH2 peptide or an irrelevant EZH2 peptide. Thereafter, the levels of EZH2 peptide-specific IgG in the resulting supernatant were determined by ELISA.
# As shown above, we investigated whether IgG reactive to each of the 11 EZH2-derived peptides could be detected in the plasma of 10 prostate cancer patients. These patients were not limited to the HLA-A24^+ subjects, because peptide-specific IgG was not restricted to MHC class I molecules, as reported previously (22). The mean+2 SD value (OD: 0.04), which was determined as the level of IgG reactive to the HIV peptide in plasma from HIV-negative healthy donors, was used as a cut-off value at a 1:100 diluted plasma in the ELISA.
# [2] = tested on: PBMCs of HLA-A24^+ prostate cancer patients; experiment: IFN-γ production of peptide-stimulated PBMCs against peptide-pulsed C1R-A24 cells (peptide-specific CTL assay); format: cell-based, human; conditions: for Cancer patients in whom the peptide induced peptide-specific CTLs: HLA-A24^+ prostate cancer patients; for IFN-γ production: day 15, C1R-A24 cells pulsed with corresponding peptide, HIV peptide background subtracted, mean of 2 wells
# Experimental: The assay for the detection of peptide-specific CTLs in PBMCs was performed according to a previously reported method (21). In brief, PBMCs (1×10^5 cells/well) were incubated with 10 μg/ml of each peptide in a U-bottom-type 96-well microculture plate (Nunc, Roskilde, Denmark) at a volume of 200 μl of culture medium. The culture medium consisted of 45% RPMI-1640, 45% AIM-V medium (Gibco BRL, Grand Island, N.Y.), 10% FCS, 100 U/ml of interleukin (IL)-2, and 0.1 mM MEM nonessential amino acid solution (Gibco BRL, Grand Island, N.Y.). Half of the culture medium was removed and replaced with new medium containing a corresponding peptide (20 μg/ml) every 3 days. On the 15th day of culture, the cultured cells were separated into 4 wells, and two of which were used for EZH2 peptide-pulsed C1R-A24 cells, and the other two of which were used for the HIV peptide-pulsed C1R-A24 cells. C1R-A24 is an HLA-A*2402-expressing subline of C1R lymphoma (Oiso M, Eura M, Katsura F, Takiguchi M, Sobao Y, Masuyama K, Nakashima M, Itoh K, Ishikawa T. A newly identified MAGE-3-derived epitope recognized by HLA-A24-restricted cytotoxic T lymphocytes. Int. J. Cancer 81: 387–394, 1999, this reference is incorporated herein by reference). After an 18-hr incubation period, the supernatants were collected and the level of IFN-γ was determined by ELISA. The EZH2-170 peptide was included in this experiment as an EZH2 peptide that was less frequently recognized by the humoral immune system.
# [3] = tested on: LNCaP-A24 cells; experiment: Inhibition of the cytotoxicity of EZH2 peptide-stimulated PBMCs by antibodies; format: cell-based, human; conditions: mAb 20 μg/ml; effector/target ratio 10/1; patients 17, 18, 21
# Experimental: We further tried to confirm which effector cells were responsible for the cytotoxicity. EZH2 peptide-stimulated PBMCs from patients 17, 18, and 21 were tested for their cytotoxicity against the LNCaP-A24 cells. The 6-hr cytotoxicity assay was performed in the presence of the indicated monoclonal antibody (mAb). The assay was done at an effector/target ratio of 10/1. Either anti-HLA class I (W6/32: mouse IgG2a), anti-HLA-DR (L243: mouse IgG2a), anti-CD4 (Nu-Th/i: mouse IgG1), anti-CD8 (Nu-Ts/c: mouse IgG2a), or anti-CD14 (H14: mouse IgG2a) mAb was added to the wells at a dose of 20 μg/ml at the start of the assay.
# [4] = tested on: LNCaP-A24 cells; experiment: 6-hr 51Cr-release cytotoxicity of EZH2 peptide-stimulated PBMCs; format: cell-based, human; conditions: LNCaP-A24 (HLA-A24^+) versus LNCaP (HLA-A24^−) and PHA-stimulated T cell blasts, PBMCs from 3 HLA-A24^+ patients
# From the text: To investigate HLA-A24-restricted cytotoxicity, the level of cytotoxicity against the LNCaP was compared with the level of cytotoxicity against its transfectant, LNCaP-A24, which is a subline that transfected with the HLA-A*2402 gene and express the gene stably (Yao A, Harada M, Matsueda S, Ishihara Y, Shomura H, Noguchi M, Matsuoka K, Hara I, Kamidono S, Itoh K, Identification of parathyroid hormone-related protein-derived peptides immunogenic in human histocompatibility leukocyte antigen-A24^+ prostate cancer patients, British Journal of Cancer, 91:287–296, 2004, this reference is incorporated herein by reference). All cell lines were maintained in RPMI-1640 medium (Gibco BRL, Grand Island, N.Y.) supplemented with 10% FCS.
# The PBMCs from 3 HLA-A24^+ prostate cancer patients were then stimulated in vitro with the indicated EZH2 peptide, and examined for their cytotoxicity against HLA-A24^− LNCaP cells, HLA-A24^+ LNCaP-A24, and HLA-A24^+ PHA-stimulated T cell blasts. Specifically, after in vitro stimulation with the EZH2 peptides, the peptide-stimulated PBMCs were additionally cultured with 100 U/ml IL-2 for approximately 10 days in 96 round-well plates in order to obtain a sufficient number of cells to carry out a cytotoxicity assay. Then, these cells were tested for cytotoxicity against LNCaP, LNCaP-A24, and PHA-stimulated T cell blasts by a 6-hr ^51Cr-release assay. Two thousand ^51Cr-labeled cells per well were cultured with effector cells in 96 round-well plates at the indicated effector/target ratios.
# [5] = significant: p < 0.05 and >100 pg/ml of IFN-γ production
sequence,measurement,setting,value
DYRYSQADAL (EZH2 725-734) [EZH2-725],"Humoral response, Total (IgG-positive patients/patients tested)",[1]; 10 prostate cancer patients,2/10
same,"IgG reactive to peptide, OD",[1]; prostate cancer patient #2,0.049 OD
same,"IgG reactive to peptide, OD",[1]; prostate cancer patient #8,0.056 OD
IFVELVNAL (EZH2 170-178) [EZH2-170],"Humoral response, Total (IgG-positive patients/patients tested)",[1]; 10 prostate cancer patients,1/10
same,"IgG reactive to peptide, OD",[1]; prostate cancer patient #8,0.043 OD
same,Cancer patients in whom the peptide induced peptide-specific CTLs,[2],1 of 10
same,IFN-γ production,[2]; patient #11,10 pg/mL
same,IFN-γ production,[2]; patient #12,15 pg/mL
same,IFN-γ production,[2]; patient #13,181 pg/mL
same,IFN-γ production,[2]; patient #14,35 pg/mL
same,IFN-γ production,[2]; patient #15,10 pg/mL
same,IFN-γ production,[2]; patient #16,30 pg/mL
same,IFN-γ production,[2]; patient #17,87 pg/mL
same,IFN-γ production,[2]; patient #18,0 pg/mL
same,IFN-γ production,[2]; patient #19,16 pg/mL
same,IFN-γ production,[2]; patient #20,82 pg/mL
same,"Reactivity of peptide-stimulated PBMCs, Total (patients with significant IFN-γ production/patients tested)",[2]; [5],1/10
"TYGPVFMCL [EBV, reference compound]","Reactivity of peptide-stimulated PBMCs, Total (patients with significant IFN-γ production/patients tested)",[2],5/10
TYYDNFCAI (EZH2 446-454) [EZH2-446],"Humoral response, Total (IgG-positive patients/patients tested)",[1]; 10 prostate cancer patients,0/10
KYVGIEREM [EZH2-735],Cytotoxicity against LNCaP-A24 cells on addition of anti-class I or anti-CD8 mAb,[3],significantly inhibited
same,Cytotoxicity of peptide-stimulated PBMCs / induction of HLA-A24-restricted prostate cancer-reactive CTLs,[4],efficiently induce HLA-A24-restricted and prostate cancer-reactive CTLs
same,Cytotoxicity of peptide-stimulated PBMCs / induction of HLA-A24-restricted prostate cancer-reactive CTLs,[4]; listed as EZH2 735–743,efficiently induced HLA-A24-restricted and prostate cancer-reactive CTLs
DFPTQVIPL (EZH2 90-98) [EZH2-90],"Humoral response, Total (IgG-positive patients/patients tested)",[1]; 10 prostate cancer patients,0/10
KYDCFLHPF [EZH2-291],Cytotoxicity against LNCaP-A24 cells on addition of anti-class I or anti-CD8 mAb,[3],significantly inhibited
same,Cytotoxicity of peptide-stimulated PBMCs / induction of HLA-A24-restricted prostate cancer-reactive CTLs,[4],efficiently induce HLA-A24-restricted and prostate cancer-reactive CTLs
same,Cytotoxicity of peptide-stimulated PBMCs / induction of HLA-A24-restricted prostate cancer-reactive CTLs,[4]; listed as EZH2 291–299,efficiently induced HLA-A24-restricted and prostate cancer-reactive CTLs
KYMCSFLFNL (EZH2 660-669) [EZH2-660],"Humoral response, Total (IgG-positive patients/patients tested)",[1]; 10 prostate cancer patients,2/10
same,"IgG reactive to peptide, OD",[1]; prostate cancer patient #2,0.105 OD
same,"IgG reactive to peptide, OD",[1]; prostate cancer patient #10,0.058 OD
RFYIQMCYEL (Flu virus-derived peptide) [reference compound],"Reactivity of peptide-stimulated PBMCs, Total (patients with significant IFN-γ production/patients tested)",[2],3/10
KYKELTEQQL (EZH2 243-252) [EZH2-243],Patients in whose plasma IgG reactive to the peptide was detected,[1]; 10 prostate cancer patients,6 of 10 patients
same,"Humoral response, Total (IgG-positive patients/patients tested)",[1]; 10 prostate cancer patients,6/10
same,"IgG reactive to peptide, OD",[1]; prostate cancer patient #1,0.055 OD
same,"IgG reactive to peptide, OD",[1]; prostate cancer patient #2,0.080 OD
same,"IgG reactive to peptide, OD",[1]; prostate cancer patient #7,0.041 OD
same,"IgG reactive to peptide, OD",[1]; prostate cancer patient #8,0.150 OD
same,"IgG reactive to peptide, OD",[1]; prostate cancer patient #9,0.089 OD
same,"IgG reactive to peptide, OD",[1]; prostate cancer patient #10,0.067 OD
same,Share of prostate cancer patients with IgG reactive to the peptide detected in plasma,[1]; summary statement,almost half
same,Cancer patients in whom the peptide induced peptide-specific CTLs,[2],2 of 10
same,IFN-γ production,[2]; patient #11,124 pg/mL
same,IFN-γ production,[2]; patient #12,25 pg/mL
same,IFN-γ production,[2]; patient #13,0 pg/mL
same,IFN-γ production,[2]; patient #14,13 pg/mL
same,IFN-γ production,[2]; patient #15,27 pg/mL
same,IFN-γ production,[2]; patient #16,27 pg/mL
same,IFN-γ production,[2]; patient #17,44 pg/mL
same,IFN-γ production,[2]; patient #18,13 pg/mL
same,IFN-γ production,[2]; patient #19,71 pg/mL
same,IFN-γ production,[2]; patient #20,171 pg/mL
same,"Reactivity of peptide-stimulated PBMCs, Total (patients with significant IFN-γ production/patients tested)",[2]; [5],2/10
NFMVEDETVL (EZH2 119-128) [EZH2-119],"Humoral response, Total (IgG-positive patients/patients tested)",[1]; 10 prostate cancer patients,1/10
same,"IgG reactive to peptide, OD",[1]; prostate cancer patient #8,0.047 OD
